Target: T1, full-length human PKCι (Homo sapiens, UniProt P41743)
T1 construct: Recombinant, full-length human PKCι expressed in Sf21 insect cells is also commercially available; purchased EMD Millipore; host or cells: Sf21 insect cells (baculovirus)
T1 sequence (P41743 1-596): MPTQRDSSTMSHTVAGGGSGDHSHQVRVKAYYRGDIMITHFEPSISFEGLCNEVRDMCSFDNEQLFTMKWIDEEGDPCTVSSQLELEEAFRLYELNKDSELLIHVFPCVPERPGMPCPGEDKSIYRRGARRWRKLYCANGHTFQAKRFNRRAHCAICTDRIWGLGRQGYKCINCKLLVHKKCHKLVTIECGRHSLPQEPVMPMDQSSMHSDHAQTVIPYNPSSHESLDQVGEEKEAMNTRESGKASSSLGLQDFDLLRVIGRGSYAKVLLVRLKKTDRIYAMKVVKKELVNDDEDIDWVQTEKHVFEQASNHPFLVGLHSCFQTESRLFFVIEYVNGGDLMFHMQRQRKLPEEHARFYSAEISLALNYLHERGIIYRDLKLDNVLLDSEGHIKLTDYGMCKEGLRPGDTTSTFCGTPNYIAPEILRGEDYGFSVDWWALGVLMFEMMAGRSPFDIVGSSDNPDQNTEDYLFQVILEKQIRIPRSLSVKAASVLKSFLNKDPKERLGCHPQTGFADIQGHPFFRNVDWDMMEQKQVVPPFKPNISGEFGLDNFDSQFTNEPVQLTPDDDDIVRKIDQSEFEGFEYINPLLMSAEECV
Assay: PKCι IC50 IMAP fluorescence polarisation assay, full-length enzyme, 150 μM ATP
Format: biochemical
Settings: read-out: IC50 in IMAP assay against full length PKCi at 150 μM ATP
In short: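 IMAP fluorescence polarisation kinase assay: 15 pM baculovirus-expressed human PKCiota with 100 nM FAM-pseudosubstrate peptide and 150 μM ATP, 1 h at 25 °C. IMAP detection reagent then 2 h at 25 °C before FP measurement. Inhibition referenced to no-compound and no-enzyme controls for IC50 fitting.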

CN(c1nc(-c2ccnc3[nH]c(Sc4ccccc4)cc23)nc2cncc(C3CC3)c12)C1CCNCC1 [Example 15, [5-Cyclopropyl-2-(2-phenylsulfanyl-1H-pyrrolo[2,3-b]pyridin-4-yl)-pyrido[3,4-d]pyrimidin-4-yl]-methyl-piperidin-4-yl amine]
IC50: < 100 nM

CSc1cc2c(-c3nc(N4CCNCC4)c4c(C5CC5)cncc4n3)ccnc2[nH]1 [Example 16, 5-Cyclopropyl-2-(2-methylsulfanyl-1H-pyrrolo[2,3-b]pyridin-4-yl)-4-piperazin-1-yl pyrido[3,4-d]pyrimidine]
IC50: < 100 nM

CSc1cc2c(-c3nc(N4CCNCC4)c4c(C5CCC5)cncc4n3)ccnc2[nH]1 [Example 17, 5-Cyclobutyl-2-(2-methylsulfanyl-1H-pyrrolo[2,3-b]pyridin-4-yl)-4-piperazin-1-yl pyrido[3,4-d] pyrimidine]
IC50: < 100 nM

Clc1ccc(-c2cc3c(-c4nc(N5CCNCC5)c5c(C6CC6)cncc5n4)ccnc3[nH]2)c(Cl)c1 [Example 18, 5-Cyclopropyl-2-[2-(2,4-dichloro-phenyl)-1H-pyrrolo[2,3-b]pyridin-4-yl]-4-piperazin-1-yl-pyrido[3,4-d] pyrimidine]
IC50: < 100 nM

FC(F)(F)c1cc2c(-c3nc(N4CC[C@H]5CNC[C@H]54)c4c(C5CC5)cncc4n3)ccnc2[nH]1 [Example 20, 5-Cyclopropyl-4-(3aS,6aS)-hexahydro-pyrrolo[3,4-b]pyrrol-1-yl-2-(2-trifluoromethyl-1H-pyrrolo[2,3-b]pyridin-4-yl)-pyrido[3,4-d]pyrimidine]
IC50: < 100 nM

FC(F)(F)c1cc2c(-c3nc(N4CC[C@@H]5CNC[C@@H]54)c4c(C5CC5)cncc4n3)ccnc2[nH]1 [Example 21, 5-Cyclopropyl-4-(3aR,6aR)-hexahydro-pyrrolo[3,4-b]pyrrol-1-yl-2-(2-trifluoromethyl-1H-pyrrolo[2,3-b]pyridin-4-yl)-pyrido[3,4-d]pyrimidine]
IC50: < 100 nM

c1ccc2c(c1)[nH]c1nccc(-c3nc(NC4CCCNCC4)c4c(C5CCC5)cncc4n3)c12 (stereo not drawn) [Example 22, Azepan-4-yl-[5-cyclobutyl-2-(9H-pyrido[2,3-b]indol-4-yl)-pyrido[3,4-d]pyrimidin-4-yl]-amine]
IC50: < 100 nM

COc1ccccc1-c1cc2c(-c3nc(N(C)C4CCNCC4(C)C)c4c(C5CC5)cncc4n3)ccnc2[nH]1 (stereo not drawn) [Example 23, {5-Cyclopropyl-2-[2-(2-methoxy-phenyl)-1H-pyrrolo[2,3-b]pyridin-4-yl]-pyrido[3,4-d]pyrimidin-4-yl}-(3,3-dimethyl-piperidin-4-yl)-methyl-amine]
IC50: < 100 nM

CN(c1nc(-c2ccnc3[nH]c(-c4ccc(Cl)cc4Cl)cc23)nc2cncc(C3CC3)c12)C1CCNCC1(C)C (stereo not drawn) [Example 24, {5-Cyclopropyl-2-[2-(2,4-dichloro-phenyl)-1H-pyrrolo[2,3-b]pyridin-4-yl]-pyrido[3,4-d]pyrimidin-4-yl}-(3,3-dimethyl-piperidin-4-yl)-methyl-amine]
IC50: < 100 nM

Clc1ccccc1-c1cc2c(-c3nc(N[C@H]4[C@@H]5CC[C@H]4CNC5)c4c(C5CC5)cncc4n3)ccnc2[nH]1 [Example 25, (1R,5S,8R)-3-Aza-bicyclo[3.2.1]oct-8-yl-{2-[2-(2-chloro-phenyl)-1H-pyrrolo[2,3-b]pyridin-4-yl]-5-cyclopropyl-pyrido[3,4-d]pyrimidin-4-yl}-amine]
IC50: 100 to 1000 nM

Clc1ccccc1-c1cc2c(-c3nc(N[C@@H]4[C@@H]5CC[C@H]4CNC5)c4c(C5CC5)cncc4n3)ccnc2[nH]1 [Example 26, (1R,5S,8S)-3-Aza-bicyclo[3.2.1]oct-8-yl-{2-[2-(2-chloro-phenyl)-1H-pyrrolo[2,3-b]pyridin-4-yl]-5-cyclopropyl-pyrido[3,4-d]pyrimidin-4-yl}-amine]
IC50: 100 to 1000 nM

CN(c1nc(-c2ccnc3[nH]c(Sc4ccccc4)cc23)nc2cncc(C3CCC3)c12)C1CCNCC1 [Example 28, [5-Cyclobutyl-2-(2-phenylsulfanyl-1H-pyrrolo[2,3-b]pyridin-4-yl)-pyrido[3,4-d]pyrimidin-4-yl]-methyl-piperidin-4-yl-amine]
IC50: < 100 nM

Reference: US10414763B2 (CANCER RESEARCH TECHNOLOGY LIMITED, priority 2014, dated 2019)
